Results taken from ChEMBL document CHEMBL4613208, “Isatin derivatives and their anti-bacterial activities” (Eur J Med Chem, 2019).

Key:
[1] = tested on: Pseudomonas aeruginosa; assay: Antibacterial activity against Pseudomonas aeruginosa after 24 hrs by paper disc diffusion technique; type: functional; conditions: Pseudomonas aeruginosa, 24 h; read-out: MIC
[2] = tested on: Staphylococcus epidermidis; assay: Antibacterial activity against Staphylococcus epidermidis after 24 hrs by paper disc diffusion technique; type: functional; conditions: Staphylococcus epidermidis, 24 h
[3] = tested on: Escherichia coli; assay: Antibacterial activity against Escherichia coli after 24 hrs by paper disc diffusion technique; type: functional; conditions: Escherichia coli, 24 h; read-out: MIC
[4] = tested on: Staphylococcus aureus; assay: Antibacterial activity against Staphylococcus aureus after 24 hrs by paper disc diffusion technique; type: functional; conditions: Staphylococcus aureus, 24 h; read-out: MIC
[5] = tested on: Micrococcus luteus; assay: Antibacterial activity against Micrococcus luteus after 24 hrs by paper disc diffusion technique; type: functional; conditions: Micrococcus luteus, 24 h
[6] = tested on: Klebsiella pneumoniae; assay: Antibacterial activity against Klebsiella pneumoniae after 24 hrs by paper disc diffusion technique; type: functional; conditions: Klebsiella pneumoniae, 24 h; read-out: MIC
[7] = tested on: Shigella dysenteriae; assay: Antibacterial activity against Shigella dysenteriae after 24 hrs by agar well diffusion technique; type: functional
[8] = tested on: Bacillus cereus; assay: Antibacterial activity against Bacillus cereus after 24 hrs by agar well diffusion technique; type: functional
[9] = tested on: Escherichia coli; assay: Antibacterial activity against Escherichia coli ATCC 25922 after 24 hrs by agar well diffusion technique; type: functional; conditions: ATCC 25922, 24 h
[10] = tested on: Staphylococcus aureus; assay: Antibacterial activity against Staphylococcus aureus ATCC 25923 after 24 hrs by agar well diffusion technique; type: functional; conditions: ATCC 25923, 24 h
[11] = tested on: Pseudomonas aeruginosa; assay: Antibacterial activity against Pseudomonas aeruginosa by two-fold serial dilution technique; type: functional
[12] = tested on: Bacillus subtilis; assay: Antibacterial activity against Bacillus subtilis by two-fold serial dilution technique; type: functional
[13] = tested on: Staphylococcus aureus; assay: Antibacterial activity against Staphylococcus aureus by two-fold serial dilution technique; type: functional
[14] = tested on: Escherichia coli; assay: Antibacterial activity against Escherichia coli by two-fold serial dilution technique; type: functional
[15] = tested on: Pseudomonas aeruginosa; assay: Antibacterial activity against Pseudomonas aeruginosa; type: functional, organism-based
[16] = tested on: Escherichia coli; assay: Antibacterial activity against Escherichia coli; type: functional, organism-based
[17] = tested on: Staphylococcus aureus; assay: Antibacterial activity against Staphylococcus aureus; type: functional, organism-based
[18] = tested on: Salmonella typhi; assay: Antibacterial activity against Salmonella typhi; type: functional, Salmonella enterica subsp. enterica serovar Typhi; conditions: Salmonella enterica
[19] = tested on: Bacillus subtilis; assay: Antibacterial activity against Bacillus subtilis; type: functional

Measured: MIC

COc1cc(/C=N/c2ccc(/N=C3/C(=O)N(CN4CCN(c5cc6c(cc5F)c(=O)c(C(=O)O)cn6C5CC5)CC4)c4ccc(F)cc43)cc2)cc(OC)c1OC
7.81 to 125 µg/mL: [1] | [2]; read-out: MIC | [3] | [4] | [5]; read-out: MIC | [6]

Cc1cc(NS(=O)(=O)c2ccc(/N=C3\C(=O)N(CO)c4ccccc43)cc2)no1
1 to 15 µg/mL: [7] | [8] | [9] | [10]

O=C(N/N=C1\C(=O)Nc2ccc(Cl)cc21)N/N=C1\C(=O)Nc2ccc(Cl)cc21
6.25 to 100 µg/mL: [11] | [12] | [13] | [14]

Cc1c(C)c2c(c(C)c1O)CCC(C)(C(=O)N/N=C1\C(=O)Nc3ccccc31)O2 (stereo unspecified)
12.5 to 100 µg/mL: [15] | [16] | [17]

Cc1c(C)c2c(c(C)c1O)CCC(C)(C(=O)N/N=C1\C(=O)Nc3ccc(F)cc31)O2 (stereo unspecified)
12.5 to 100 µg/mL: [15] | [16] | [17]

Cc1ccc(/C=N/c2ccc(/N=C3/C(=O)N(CN4CCN(c5cc6c(cc5F)c(=O)c(C(=O)O)cn6C5CC5)CC4)c4ccc(F)cc43)cc2)cc1
7.81 to 125 µg/mL: [1] | [2]; read-out: MIC | [3] | [4] | [5]; read-out: MIC | [6]

Cc1c(C)c2c(c(C)c1O)CCC(C)(C(=O)N/N=C1\C(=O)Nc3cc(Cl)ccc31)O2 (stereo unspecified)
12.5 to 100 µg/mL: [15] | [16] | [17]

Cc1cc(NS(=O)(=O)c2ccc(/N=C3\C(=O)Nc4ccc(Cl)cc43)cc2)no1
1 to 15 µg/mL: [7] | [8] | [9] | [10]

O=C(N/N=C1\C(=O)N(Cc2ccccc2)c2ccccc21)N/N=C1\C(=O)N(Cc2ccccc2)c2ccccc21
6.25 to 100 µg/mL: [11] | [12] | [13] | [14]

O=C(O)c1cn(C2CC2)c2cc(N3CCN(CN4C(=O)/C(=N/c5ccc(/N=C/c6ccccc6O)cc5)c5cc(F)ccc54)CC3)c(F)cc2c1=O
7.81 to 125 µg/mL: [1] | [2]; read-out: MIC | [3] | [4] | [5]; read-out: MIC | [6]

Cc1ccc2c(c1)/C(=N/NC(=O)N/N=C1\C(=O)Nc3ccc(C)cc31)C(=O)N2
6.25 to 100 µg/mL: [11] | [12] | [13] | [14]

Cc1ccc2c(c1)/C(=N/NC(=O)N/N=C1\C(=O)N(Cc3ccccc3)c3ccc(C)cc31)C(=O)N2Cc1ccccc1
6.25 to 100 µg/mL: [11] | [12] | [13] | [14]

O=C(N/N=C1\C(=O)Nc2ccc([N+](=O)[O-])cc21)N/N=C1\C(=O)Nc2ccc([N+](=O)[O-])cc21
6.25 to 100 µg/mL: [11] | [12] | [13] | [14]

O=C(O)c1cn(C2CC2)c2cc(N3CCNCC3)c(F)cc2c1=O [CIPROFLOXACIN]
2 nM: [18]
< 5 µg/mL: [15] | [16] | [19] | [17]
3.9 to 15.6 µg/mL: [1] | [2] | [3] | [4] | [5] | [6]

[N-]=[N+]=Nc1ccc(C2=NN(C(=O)CN3C(=O)C(=O)c4ccccc43)C(c3ccc(F)cc3)C2)cc1 (stereo unspecified)
6.25 to 50 µg/mL: [15] | [16] | [19] | [17]

O=C(N/N=C1\C(=O)Nc2ccc(Br)cc21)N/N=C1\C(=O)Nc2ccc(Br)cc21
6.25 to 100 µg/mL: [11] | [12] | [13] | [14]

O=C(N/N=C1\C(=O)Nc2ccccc21)N/N=C1\C(=O)Nc2ccccc21
6.25 to 100 µg/mL: [11] | [12] | [13] | [14]

Cc1c(C)c2c(c(C)c1O)CCC(C)(C(=O)N/N=C1\C(=O)N(C)c3ccccc31)O2 (stereo unspecified)
12.5 to 100 µg/mL: [15] | [16] | [17]
